Assay results: US5767116A, “Bicyclic aromatic compounds as therapeutic agents” (Knoll Atkiengesellschaft, priority 1993, dated 1998)
Structures can show the parent of a compound that is named as a salt. Where two headings read alike, the source gives them in different places.

What was measured:
5-HT1A receptors = target: T1, 5-HT1A receptors (Rattus norvegicus, UniProt P19327); assay: biochemical; assay type: binding, rat (male Charles River CD); details: for Ki: 25° C., 30 minutes
T1 sequence (P19327 1-422): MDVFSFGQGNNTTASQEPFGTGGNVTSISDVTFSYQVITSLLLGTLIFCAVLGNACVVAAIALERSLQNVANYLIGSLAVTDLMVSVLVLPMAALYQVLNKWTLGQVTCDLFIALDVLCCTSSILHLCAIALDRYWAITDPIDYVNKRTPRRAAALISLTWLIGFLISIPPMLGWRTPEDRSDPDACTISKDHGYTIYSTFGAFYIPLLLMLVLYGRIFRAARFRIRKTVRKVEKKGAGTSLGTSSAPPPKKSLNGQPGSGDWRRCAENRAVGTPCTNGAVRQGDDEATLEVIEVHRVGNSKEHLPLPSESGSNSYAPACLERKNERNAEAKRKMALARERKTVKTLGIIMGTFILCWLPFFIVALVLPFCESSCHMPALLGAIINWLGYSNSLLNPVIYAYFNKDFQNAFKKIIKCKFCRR
Protocol: The pellet was rehomogenised in the same buffer, incubated at 37° C. for 10 minutes and centrifuged at 30,000 g at 4° C. for 10 minutes. […] Aliquots (400 μl; equivalent to 2.5 mg wet weight of tissue/tube) of this suspension were added to tubes containing the ligand (50 μl; 2 nM) and distilled water (50 μl; total binding) or 5-HT (50 μl; 10 µM; non-specific binding) or test compound (50 μl; at a single concentration of 10^-6 M or at 10 concentrations ranging from 10^-11 -10^-3 M). The ligand was [^3 H]8-hydroxy-2-(dipropylamino)tetralin([^3 H]8-OH-DPAT) and the mixture was incubated at 25° C. for 30 minutes before the incubation was terminated by rapid filtration.
(§1) The filters were punched out into vials, scintillation fluid added and radioactivity determined by liquid scintillation counting. The percentage displacement of specific binding of the tritiated ligand was calculated for the single concentration (10^-6 M) of test compound. Displacement curves were then produced for those compounds which displaced ≥50% of specific binding of the tritiated ligand at 10^-6 M using a range of concentrations of the compound. […] The inhibition coefficient Ki was then calculated using the formula [formula] in which [ligand] is the concentration of the tritiated ligand used and KD is the equilibrium dissociation constant for the ligand.

α2-adrenoceptors = target: T2, α2-adrenoceptors (Rattus norvegicus, UniProt P22909); assay: inhibition of tritiated ligand (tritiated idazoxan) binding to α2-adrenoceptors in vitro (frontal cortical tissue); design: species or system rat (male Charles River CD); details: for Ki: 0° C., 75 minutes, > from highest concentration which displaced ≤50% of the ligand; for inhibition at 1 µM: read-out: % displacement at 10^-6 M, α2, 10^-6 M, rat frontal cortical tissue, tritiated idazoxan
T2 sequence (P22909 1-465): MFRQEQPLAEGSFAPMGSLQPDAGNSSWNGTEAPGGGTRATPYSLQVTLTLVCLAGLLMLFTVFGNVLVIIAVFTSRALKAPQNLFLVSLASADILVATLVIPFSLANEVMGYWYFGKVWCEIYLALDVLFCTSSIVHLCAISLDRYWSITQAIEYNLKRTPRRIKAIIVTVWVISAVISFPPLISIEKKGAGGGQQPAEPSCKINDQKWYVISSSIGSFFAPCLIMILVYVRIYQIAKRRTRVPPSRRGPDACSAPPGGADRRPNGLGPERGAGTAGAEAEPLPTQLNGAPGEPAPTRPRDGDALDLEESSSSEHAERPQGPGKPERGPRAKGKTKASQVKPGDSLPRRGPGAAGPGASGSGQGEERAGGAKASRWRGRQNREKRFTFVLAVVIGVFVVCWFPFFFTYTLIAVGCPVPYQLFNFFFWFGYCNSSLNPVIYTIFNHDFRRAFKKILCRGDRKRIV
Protocol: Frontal cortical tissue from the brains of male Charles River CD rats weighing between 150-250 g were homogenised in ice-cold 0.25M sucrose (1:30 w/v) and centrifuged at 1,000 g at 4° C. for 12 minutes. The supernatant was stored on ice and the pellet was rehomogenised in 0.25M sucrose (1:15 w/v) and centrifuged at 850 g at 4° C. for 12 minutes. Combined supernatants were diluted with 5 mM Tris-HCl (pH 7.5) containing 0.5M ethylenediamine tetraacetic acid (EDTA) readjusted to pH 7.5 (at 25° C.) with 1M sodium hydroxide to 1:80 w/v, and centrifuged at 30,000 g at 4° C. for 10 minutes. The resulting pellet was resuspended in 5 mM Tris-HCl (pH 7.5) containing 5.68 mM L-ascorbic acid and 5 mM EDTA readjusted to pH 7.5 (at 25° C.) with 1M sodium hydroxide, and centrifuged at 30,000 g for 10 minutes. The final pellet was resuspended in 50 mM Tris-HCl (pH 7.5) containing 5.68 mM L-ascorbic acid and 5 mM EDTA (equivalent to 12.5 mg wet weight of tissue/ml) and used immediately in the binding assay. Aliquots (400 μl; equivalent to 5 mg wet weight of tissue/tube) of this suspension were added to tubes containing the ligand (50 μl; 1 nM) and distilled water (50 μl; total binding) or phentolamine (50 μl; 5 μM; non-specificbinding) or test compound (50 μl; at a single concentration of 10^-6 M or at 10 concentrations ranging from 10^-11 -10^-3 M). The ligand was tritiated idazoxan ((1,4-[6,7(n)-^3 H]benzodioxan-2-yl)-2-imidazoline hydrochloride) and the mixture was incubated at 0° C. for 75 minutes before the incubation was terminated by rapid filtration.
as §1, with “The filters were washed with ice-cold Tris-HCl buffer and dried. The filters” for “The filters”

D2 dopamine receptors = D2 dopamine receptors (Rattus norvegicus, UniProt P61169); assay: biochemical; assay type: binding, rat (male Charles River CD)
Chain of D2 dopamine receptors (P61169 whole entry): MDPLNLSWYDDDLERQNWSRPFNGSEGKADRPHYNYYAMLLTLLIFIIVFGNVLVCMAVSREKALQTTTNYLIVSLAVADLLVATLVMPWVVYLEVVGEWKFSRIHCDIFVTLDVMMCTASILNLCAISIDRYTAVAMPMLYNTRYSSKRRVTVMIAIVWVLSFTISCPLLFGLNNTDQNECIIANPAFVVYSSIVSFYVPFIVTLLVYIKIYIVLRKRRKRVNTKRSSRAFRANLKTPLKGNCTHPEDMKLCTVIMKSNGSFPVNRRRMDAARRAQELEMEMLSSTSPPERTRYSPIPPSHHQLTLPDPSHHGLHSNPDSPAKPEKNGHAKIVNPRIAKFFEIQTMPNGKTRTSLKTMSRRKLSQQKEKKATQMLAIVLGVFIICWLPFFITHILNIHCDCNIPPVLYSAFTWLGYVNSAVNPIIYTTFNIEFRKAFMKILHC

α1-adrenoceptors = assay: inhibition of tritiated ligand ([7-methoxy-^3 H]prazosin) binding to α1-adrenoceptors in vitro (whole cortical tissue); design: species or system rat (male Charles River CD); details: rat whole cortical tissue; for Ki: 30° C., 30 minutes, > from highest concentration which displaced ≤50% of the ligand; for % displacement at 10^-6 M, α1: 30 min, 1 µM
Protocol: The supernatant was centrifuged at 30,000 g at 4° C. for 10 minutes. […] Aliquots (400 μl; equivalent to 5 mg wet weight of tissue/tube) of this suspension were added to tubes containing the ligand (50 μl; 0.1 nM) and distilled water (50 μl; total binding) or phentolamine (50 μl; 5 μM; non-specific binding) or test compound (50 μl; at a single concentration of 10^-6 M or at 10 concentrations ranging from 10^-11 -10^-3 M). The ligand was [7-methoxy-^3 H]prazosin and the mixture was incubated at 30° C. for 30 minutes before the incubation was terminated by rapid filtration.
as §1

[1] = rat hippocampal tissue, [^3 H]8-OH-DPAT
[2] = rat frontal cortical tissue, tritiated idazoxan
[3] = rat striatal tissue, tritiated (S)-sulpiride, 4° C., 40 minutes
[4] = read-out: % displacement at 10^-6 M, 5-HT1A, 10^-6 M, rat hippocampal tissue, [^3 H]8-OH-DPAT
[5] = 10^-6 M, rat hippocampal tissue, [^3 H]8-OH-DPAT, read-out: % displacement at 10^-6 M, 5-HT1A
[6] = 10^-6 M, rat hippocampal tissue, [^3 H]8-OH-DPAT

Row | Compound | Ki (5-HT1A receptors; [1]) [nM] | Ki (α2-adrenoceptors; [2]) [nM] | Ki (D2 dopamine receptors; [3]) [nM] | Ki (α1-adrenoceptors) [nM] | inhibition at 1 µM (5-HT1A receptors; [5]) [%] | inhibition at 1 µM (5-HT1A receptors; [4]) [%] | inhibition at 1 µM (α2-adrenoceptors) [%] | % displacement at 10^-6 M, α1 (α1-adrenoceptors) [%] | % displacement at 10^-6 M, 5-HT1A (5-HT1A receptors; [6]) [%] | % displacement at 10^-6 M, α2 (α2-adrenoceptors; 10^-6 M, rat frontal cortical tissue, tritiated idazoxan, 1 µM) [%] | Ki (D2 dopamine receptors) [nM]
1 | c1ccc2c(c1)OCC(CNCC1CCN(c3cnccn3)CC1)O2 (stereo not shown) [Example 1, N-(1,4-benzodioxan-2-ylmethyl)-1-[1-(pyrazin-2-yl)piperid-4-yl]methylamine1.4 hydrochloride] | 14 | 31 | 15.6 | 23.9 |  |  |  |  |  |  | 
2 | Cl.Clc1ccccc1N1CCC(CNCC2COc3ccccc3O2)CC1 (stereo not shown) [Example 22, N-(1,4-benzodioxan-2-ylmethyl)-1-[1-(2-chlorophenyl)piperid-4-yl]methylamine hydrochloride] |  |  | 43.5 |  |  | 95 | 63 | 71 |  |  | 
3 | N-(5-fluoro-1,4-benzodioxan-2-ylmethyl)-1-[1-(2-methoxyphenyl) piperid-4-yl]methylamine hydrochloride and N-(8-fluoro-1,4-benzodioxan-2-ylmethyl)-1-[1-(2-methoxyphenyl) piperid-4-yl]methylamine hydrochloride [Example 23] |  |  |  |  |  |  |  | 92 | 92 | 75 | 43
4 | c1ccc(N2CCC(CNCC3COc4ccccc4O3)CC2)nc1 (stereo not shown) [Example 5, N-(1,4-benzodioxan-2-ylmethyl)-1-[1-(pyrid-2-yl)piperid-4-yl]methylamine dihydrochloride] | 22.6 | 50 | 29 | 79 |  |  |  |  |  |  | 
5 | COc1ccccc1N1CCC(CNCC2COc3cccc(OC)c3O2)CC1 (stereo not shown) [Example 6, N-(8-methoxy-1,4-benzodioxan-2-ylmethyl)-1-[1-(2-methoxyphenyl)piperid-4-yl]methylamine dihydrochloride] | 252 |  | 8.5 | 3.7 |  |  | 92 |  |  |  | 
6 | N-(7-chloro-1,4-benzodioxan-2-ylmethyl)-1-[1-(2-methoxyphenyl) piperid-4-yl]methylamine and N-(6-chloro-1,4-benzodioxan-2-ylmethyl)-1-[1-(2-methoxy phenyl)-piperid-4-yl]methylamine 1.7 hydrochloride hydrate [Example 27] |  | > 500 | 61.7 |  |  |  |  | 58 | 94 |  | 
7 | COc1cccc2c1OC(CNCC1CCN(c3cccc4c3OCC4)CC1)CO2.Cl (stereo not shown) [Example 25, 1-[1-(2,3-dihydrobenzo[b]furan-7-yl)piperid-4-yl]-N-(8-methoxy-1,4-benzodioxan-2-ylmethyl) methylamine hydrochloride] |  |  | 20.9 |  |  | 101 | 96 | 99 |  |  | 

More lines, main results first:

Row | Ki (5-HT1A receptors; [1]) [nM] | Ki (α2-adrenoceptors; [2]) [nM] | Ki (D2 dopamine receptors; [3]) [nM] | Ki (α1-adrenoceptors) [nM] | inhibition at 1 µM (5-HT1A receptors; [5]) [%] | Compound | inhibition at 1 µM (5-HT1A receptors; [4]) [%] | inhibition at 1 µM (α2-adrenoceptors) [%] | % displacement at 10^-6 M, α1 (α1-adrenoceptors) [%] | % displacement at 10^-6 M, 5-HT1A (5-HT1A receptors; [6]) [%] | % displacement at 10^-6 M, α2 (α2-adrenoceptors; 10^-6 M, rat frontal cortical tissue, tritiated idazoxan, 1 µM) [%] | Ki (D2 dopamine receptors) [nM]
8 |  | > 500 | 81.3 | > 500 | 97 | COc1ccccc1N1CCC(CNCC2COc3ccc4ccccc4c3O2)CC1 (stereo not shown) [Example 24, 1-[1-(2-methoxyphenyl)piperid-4-yl]-N-(naphtho[1,2-b]dioxan-2-ylmethyl) methylamine hydrochloride 1.3 hydrate] |  |  |  |  |  | 
9 | 7.7 | 394 | 19 | 78 |  | COc1ccccc1N1CCC(CNCC2COc3ccccc3O2)CC1 (stereo not shown) [Example 2, N-(1,4-benzodioxan-2-ylmethyl)-1-[1-(2-methoxyphenyl)piperid-4-yl]methylamine dihydrochloride] |  |  |  |  |  | 
10 | 3.8 | 30 | 35.8 | 13 |  | c1ccc2c(c1)OCC(CNCC1CCN(c3ncnc4ccccc34)CC1)O2 (stereo not shown) [Example 4, N-(1,4-benzodioxan-2-ylmethyl)-1-[1-(quinazolin-4-yl)piperid-4-yl]methylamine dihydrochloride] |  |  |  |  |  | 
11 | 8.2 | > 500 | 46.4 | 34 |  | COc1cccc2c1CC(CNCC1CCN(c3ncccn3)CC1)CC2 (stereo not shown) [Example 9, N-(8-methoxy-1,2,3,4-tetrahydronaphth-2-ylmethyl)-1-[1-(pyrimidin-2-yl)piperid-4-yl]methylamine 1.1 hydrochloride] |  |  |  |  |  | 
12 |  | > 500 | 4.3 |  | 99 | COc1ccccc1NCCCNCC1COc2cccc(OC)c2O1.O=C(O)/C=C\C(=O)O (stereo not shown) [Example 17, N-(8-methoxy-1,4-benzodioxan-2-ylmethyl)-N'-(2-methoxyphenyl)-1,3-propanediamine maleate] |  |  | 93 |  |  | 
13 | 1.9 | 86 | 45.3 | 38 |  | Clc1cccnc1N1CCC(CNCC2COc3ccccc3O2)CC1 (stereo not shown) [Example 3, N-(1,4-benzodioxan-2-ylmethyl)-1-[1-(3-chloropyrid-2-yl)piperid-4-yl]methylamine 1.4 hydrochloride] |  |  |  |  |  | 
